Data: patent US9125388B2, “Biological control” (Isis Innovation Limited, priority 1999, dated 2015)

Assays:
[1] = test system: Hsp26 tTa^(A) × tRe Msl-2^Nopu(A, B,); experiment: Single chromosome crosses at 25° C., adult progeny by sex
[2] = test system: (Male) Sxlp^e tTa^(A) × tRe lacZ^(III) (Female); experiment: Reporter crosses at 25° C., embryos stained for lacZ
[3] = test system: Sxl^pe-tTA, tRE-Msl-2^Nopu on the third chromosome; experiment: Recombinant chromosome experiments: parents raised on supplement, progeny on normal food, adults by sex (25, 18 or 29° C.); assay type: in vivo, Drosophila melanogaster; conditions: for Female progeny per daily vial / Female progeny Total / Male progeny Total: 25° C.; for Female progeny per daily vial: Day 1-12 on tetracycline-free food; for Female progeny Total / Male progeny Total: Day 1-12 total
Description: (§1) 40-45 young females and 20-25 young males raised at 25° C. upon food with the indicated tetracycline supplement were allowed to mate, then transferred to normal (tetracycline-free) food after 3-4 days. These flies were transferred to fresh vials of normal food every day for 12 days, then removed on the 13th day. All the vials were incubated at 25° C. while the progeny developed. The numbers of male and female progeny emerging as adults in each vial were recorded.
(§2) A standard range of additive concentrations were used in the following experiments (0.05-20 μg/ml). […] (=“not done”)
(§3) All the preceding experiments were performed at 25° C., the standard temperature for Drosophila culture. However, the insects in the wild would clearly be exposed to varying temperatures, so we investigated the extent to which the efficiency of the system is affected by temperature. As with the recombinant chromosome experiments, 40-45 young virgin females and 20-25 young males raised at 25° C. upon food with the indicated tetracycline supplement were allowed to mate, then transferred to normal (tetracycline-free) food after 3-4 days. These flies were transferred to fresh vials of normal food every day. The numbers of male and female progeny emerging as adults in each vial were recorded. These experiments were performed at either 18° C. or 29° C.

[4] = test system: Sxl^pe-tTA, tRE-Ras64B^V12 on the third chromosome; experiment: as above; assay type: in vivo, Drosophila melanogaster; conditions: for Female progeny Total / Male progeny Total: Day 1-12 total
Description: as §1, §2, §3

[5] = test system: Hsp26 tTa, tRe Msl-2^Nopu on the 2nd chromosome; experiment: as above; assay type: in vivo, Drosophila melanogaster
Description: as §1, §2, §3

[6] = test system: Yp3 tTa, tRe Msl-2^Nopu on the 2nd chromosome; experiment: as above; assay type: in vivo, Drosophila melanogaster
Description: as §1, §2, §3

[7] = parents raised on Tet. 0.1 μg/ml
[8] = parents raised on Tet. 20 μg/ml
[9] = parents raised on Tet. 100 μg/ml
[10] = parents raised on Tet. 500 μg/ml
[11] = parents raised on Tet. 1000 μg/ml
[12] = parents raised on Tet. 2000 μg/ml
[13] = parents raised on tetracycline 0.1 μg/ml, 18° C.
[14] = parents raised on tetracycline 0.1 μg/ml, 29° C.
[15] = parents raised on tetracycline 1 μg/ml, 18° C.
[16] = parents raised on tetracycline 1 μg/ml, 29° C.
[17] = parents raised on tetracycline 5 μg/ml, 18° C.
[18] = parents raised on tetracycline 5 μg/ml, 29° C.
[19] = parents raised on Tet. 0.1 μg/ml, 25° C.
[20] = parents raised on Tet. 1 μg/ml, 25° C.
[21] = parents raised on Tet. 5 μg/ml, 25° C.
[22] = parents raised on Tet. 20 μg/ml, 25° C.
[23] = parents raised on Tet. 100 μg/ml, 25° C.
[24] = parents raised on Tet. 500 μg/ml, 25° C.
[25] = parents raised on Tet. 1000 μg/ml, 25° C.
[26] = parents raised on Tet. 2000 μg/ml, 25° C.

CN(C)[C@@H]1C(O)=C(C(N)=O)C(=O)[C@@]2(O)C(O)=C3C(=O)c4c(O)cccc4[C@@](C)(O)[C@H]3C[C@@H]12 [Tetracycline, tetracycline]
Female progeny Total ([1]; Tetracycline 0.1 μg/ml in food): 159
Male progeny Total ([1]; Tetracycline 0.1 μg/ml in food): 159
Female progeny Total ([1]; Tetracycline 1 μg/ml in food): 135
Male progeny Total ([1]; Tetracycline 1 μg/ml in food): 122
Female progeny Total ([1]; Tetracycline 5 μg/ml in food): 124
Male progeny Total ([1]; Tetracycline 5 μg/ml in food): 120
LacZ negative Total ([2]; Tetracycline 0.1 μg/ml in food): 518
LacZ positive Total ([2]; Tetracycline 0.1 μg/ml in food): 0
LacZ negative Total ([2]; Tetracycline 1 μg/ml in food): 707
LacZ positive Total ([2]; Tetracycline 1 μg/ml in food): 0
LacZ negative Total ([2]; Tetracycline 5 μg/ml in food): 702
LacZ positive Total ([2]; Tetracycline 5 μg/ml in food): 0
Female progeny per daily vial [3, 7]: 0
Female progeny Total [3, 7]: 0
Male progeny Total [3, 7]: 1267
Female progeny per daily vial ([3]; parents raised on Tet. 1 μg/ml): 0
Female progeny Total ([3]; parents raised on Tet. 1 μg/ml): 0
Male progeny Total ([3]; parents raised on Tet. 1 μg/ml): 1171
Female progeny per daily vial ([3]; parents raised on Tet. 5 μg/ml): 0
Female progeny Total ([3]; parents raised on Tet. 5 μg/ml): 0
Male progeny Total ([3]; parents raised on Tet. 5 μg/ml): 1165
Female progeny per daily vial [3, 8]: 0
Female progeny Total [3, 8]: 0
Male progeny Total [3, 8]: 1127
Female progeny per daily vial [3, 9]: 0
Female progeny Total [3, 9]: 0
Male progeny Total [3, 9]: 1168
Female progeny per daily vial [3, 10]: 0
Female progeny Total [3, 10]: 0
Male progeny Total [3, 10]: 1137
Female progeny Total [3, 11]: 3
Male progeny Total [3, 11]: 1309
Female progeny Total [3, 12]: 32
Male progeny Total [3, 12]: 1325
Female progeny emerging as adults [3, 13]: 2
Male progeny emerging as adults [3, 13]: 973
Female progeny emerging as adults [3, 14]: 0
Male progeny emerging as adults [3, 14]: 749
Female progeny emerging as adults [3, 15]: 9
Male progeny emerging as adults [3, 15]: 985
Female progeny emerging as adults [3, 16]: 0
Male progeny emerging as adults [3, 16]: 737
Female progeny emerging as adults [3, 17]: 5
Male progeny emerging as adults [3, 17]: 983
Female progeny emerging as adults [3, 18]: 0
Male progeny emerging as adults [3, 18]: 718
Female progeny per daily vial ([4]; parents raised on Tet. 0.1 μg/ml, 25° C., Day 1-12 on tetracycline-free food): 0
Female progeny Total [4, 19]: 0
Male progeny Total [4, 19]: 1541
Female progeny per daily vial ([4]; parents raised on Tet. 1 μg/ml, 25° C., Day 1-12 on tetracycline-free food): 0
Female progeny Total [4, 20]: 0
Male progeny Total [4, 20]: 1441
Female progeny per daily vial ([4]; parents raised on Tet. 5 μg/ml, 25° C., Day 1-12 on tetracycline-free food): 0
Female progeny Total [4, 21]: 0
Male progeny Total [4, 21]: 1421
Female progeny per daily vial ([4]; parents raised on Tet. 20 μg/ml, 25° C., Day 1-12 on tetracycline-free food): 0
Female progeny Total [4, 22]: 0
Male progeny Total [4, 22]: 1487
Female progeny per daily vial ([4]; parents raised on Tet. 100 μg/ml, 25° C., Day 1-12 on tetracycline-free food): 0
Female progeny Total [4, 23]: 0
Male progeny Total [4, 23]: 1416
Female progeny Total [4, 24]: 72
Male progeny Total [4, 24]: 1388
Female progeny Total [4, 25]: 87
Male progeny Total [4, 25]: 1416
Male progeny per daily vial ([4]; parents raised on Tet. 2000 μg/ml, 25° C., Day 1-12 on tetracycline-free food, listed as Tet.): 123
Female progeny Total [4, 26]: 161
Male progeny Total [4, 26]: 1438
Female progeny emerging as adults [4, 13]: 6
Male progeny emerging as adults [4, 13]: 1065
Female progeny emerging as adults [4, 14]: 0
Male progeny emerging as adults [4, 14]: 781
Female progeny emerging as adults [4, 15]: 9
Male progeny emerging as adults [4, 15]: 1124
Female progeny emerging as adults [4, 16]: 0
Male progeny emerging as adults [4, 16]: 749
Female progeny emerging as adults [4, 17]: 7
Male progeny emerging as adults [4, 17]: 989
Female progeny emerging as adults [4, 18]: 0
Male progeny emerging as adults [4, 18]: 741
Female progeny emerging as adults [5, 13]: 8
Male progeny emerging as adults [5, 13]: 832
Female progeny emerging as adults [5, 14]: 0
Male progeny emerging as adults [5, 14]: 696
Female progeny emerging as adults [5, 15]: 7
Male progeny emerging as adults [5, 15]: 879
Female progeny emerging as adults [5, 16]: 0
Male progeny emerging as adults [5, 16]: 658
Female progeny emerging as adults [5, 17]: 4
Male progeny emerging as adults [5, 17]: 818
Female progeny emerging as adults [5, 18]: 0
Male progeny emerging as adults [5, 18]: 711
Female progeny emerging as adults [6, 13]: 8
Male progeny emerging as adults [6, 13]: 1152
Female progeny emerging as adults [6, 14]: 0
Male progeny emerging as adults [6, 14]: 765
Female progeny emerging as adults [6, 15]: 12
Male progeny emerging as adults [6, 15]: 1122
Female progeny emerging as adults [6, 16]: 0
Male progeny emerging as adults [6, 16]: 702
Female progeny emerging as adults [6, 17]: 3
Male progeny emerging as adults [6, 17]: 1225
Female progeny emerging as adults [6, 18]: 0
Male progeny emerging as adults [6, 18]: 773
